Reference: patent US20240300980A1, “HETEROCYCLIC COMPOUNDS AS KRAS INHIBITOR, AND PREPARATION THEREFOR AND USE THEREOF IN TREATMENT” (SHANGHAI KECHOW PHARMA, INC., priority 2021, published 2024)

System: AGS cells (KRAS^G12D)
Test: Detection of cell proliferation in vitro by MTT/MTS method (cell activity experiment)
Assay type: cell-based
Conditions: AGS cells; MTT/MTS; 3 days of drug treatment; read-out: AGS IC50
Summary of the method: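 After 3-day compound exposure (final DMSO 0.5%), viability of AGS (KRAS G12D) cells, plated 1000/well one day before dosing, was measured at 490 nm following 4 h MTT or MTS incubation. IC50 was fitted from dose–effect curves relative to DMSO-treated wells.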

Compound	IC50 [nM]
Oc1cc2c(c(-c3ncc4c(N5C[C@H]6CC[C@@H](C5)N6)nc(OC[C@@]56CCCN5C[C@H](F)C6)nc4c3F)c1)CCCC2 [Example 419, 4-(4-((1R,5S)-3,8-diazabicyclo[3.2.1]octan-3-yl)-8-fluoro-2-(((2R,7aS)-2-fluorotetrahydro-1H-pyrrolizin-7a(5H)-yl)methoxy)pyrido[4,3-d]pyrimidin-7-yl)-5,6,7,8-tetrahydronaphthalen-2-ol]	14

Same assay, conditions: Homo sapiens, AGS, 72 h, AGS cells; MTT/MTS; 3 days of drug treatment; read-out: AGS IC50

IC50 [nM]	Compound
26	CC1CCCc2cc(O)cc(-c3ncc4c(NCC5(N(C)C)CCC5)nc(OC[C@@]56CCCN5C[C@H](F)C6)nc4c3F)c21 (stereo partly drawn) [Example 421, 4-(4-(((1-(dimethylamino)cyclobutyl)methyl)amino)-8-fluoro-2-(((2R,7aS)-2-fluorotetrahydro-1H-pyrrolizin-7a(5H)-yl)methoxy)pyrido[4,3-d]pyrimidin-7-yl)-5-methyl-5,6,7,8-tetrahydronaphthalen-2-ol]
35	CCC1CCCc2cc(O)cc(-c3ncc4c(NCC5(N(C)C)CCC5)nc(OC[C@@]56CCCN5C[C@H](F)C6)nc4c3F)c21 (stereo partly drawn) [Example 422, 4-(4-(((1-(dimethylamino)cyclobutyl)methyl)amino)-8-fluoro-2-(((2R,7aS)-2-fluorotetrahydro-1H-pyrrolizin-7a(5H)-yl)methoxy)pyrido[4,3-d]pyrimidin-7-yl)-5-ethyl-5,6,7,8-tetrahydronaphthalen-2-ol]
55	CCC1CCc2cc(O)cc(-c3ncc4c(NCC5(N(C)C)CCC5)nc(OC[C@@]56CCCN5C[C@H](F)C6)nc4c3F)c21 (stereo partly drawn) [Example 423, 7-(4-(((1-(dimethylamino)cyclobutyl)methyl)amino)-8-fluoro-2-(((2R,7aS)-2-fluorotetrahydro-1H-pyrrolizin-7a(5H)-yl)methoxy)pyrido[4,3-d]pyrimidin-7-yl)-1-ethyl-2,3-dihydro-1H-inden-5-ol]
30	C#Cc1nccc2cc(O)cc(-c3ncc4c(NCC5(N(C)C)CCC5)nc(OC[C@@]56CCCN5C[C@H](F)C6)nc4c3F)c12 [Example 424, 8-(4-(((1-(dimethylamino)cyclobutyl)methyl)amino)-8-fluoro-2-(((2R,7aS)-2-fluorotetrahydro-1H-pyrrolizin-7a(5H)-yl)methoxy)pyrido[4,3-d]pyrimidin-7-yl)-1-ethynylisoquinolin-6-ol]
55	CC1CCCc2cc(O)cc(-c3ccc4c(NCC5(N(C)C)CCC5)nc(OC[C@@]56CCCN5C[C@H](F)C6)nc4c3F)c21 (stereo partly drawn) [Example 427, 4-(4-(((1-(dimethylamino)cyclobutyl)methyl)amino)-8-fluoro-2-(((2R,7aS)-2-fluorotetrahydro-1H-pyrrolizin-7a(5H)-yl)methoxy)quinazolin-7-yl)-5-methyl-5,6,7,8-tetrahydronaphthalen-2-ol]

More lines, now with the values behind:

Compound	IC50 [nM]
CCC1CCc2cc(O)cc(-c3c(F)c4nc(OC[C@@]56CCCN5C[C@H](F)C6)nc(N5C[C@H]6CC[C@@H](C5)N6)c4c4cncn34)c21 (stereo partly drawn) [Example 418, 7-(1-((1R,5S)-3,8-diazabicyclo[3.2.1]octan-3-yl)-5-fluoro-3-(((2R,7aS)-2-fluorotetrahydro-1H-pyrrolizin-7a(5H)-yl)methoxy)imidazo[1′,5′:1,2]pyrido[4,3-d]pyrimidin-6-yl)-1-ethyl-2,3-dihydro-1H-inden-5-ol]	75
Oc1cc2c(c(-c3ccc4c(N5C[C@H]6CC[C@@H](C5)N6)nc(OC[C@@]56CCCN5C[C@H](F)C6)nc4c3F)c1)CCCC2 [Example 420, 4-(4-((1R,5S)-3,8-diazabicyclo[3.2.1]octan-3-yl)-8-fluoro-2-(((2R,7aS)-2-fluorotetrahydro-1H-pyrrolizin-7a(5H)-yl)methoxy)quinazolin-7-yl)-5,6,7,8-tetrahydronaphthalen-2-ol]	60
CSC1CCCc2cc(O)cc(-c3ncc4c(N5C[C@H]6CC[C@@H](C5)N6)nc(OC[C@@]56CCCN5C[C@H](F)C6)nc4c3F)c21 (stereo partly drawn) [Example 426, 4-(4-((1R,5S)-3,8-diazabicyclo[3.2.1]octan-3-yl)-8-fluoro-2-(((2R,7aS)-2-fluorotetrahydro-1H-pyrrolizin-7a(5H)-yl)methoxy)pyrido[4,3-d]pyrimidin-7-yl)-5-(methylthio)-5,6,7,8-tetrahydronaphthalen-2-ol]	15
